Read-outs that look alike come from different tables or passages of the source.
How the values were obtained:
human BRS-3-receptor [1] = target: T1, human BRS-3-receptor (Homo sapiens, UniProt P32247); assay: p42/44 MAPK phosphorylation; type: cell-based; settings: for EC50: EC50, p42/44 phosphorylation; for P-p42/44 (Exp/control): MK-5046 10 nM, 3 min
T1 sequence (P32247 1-399): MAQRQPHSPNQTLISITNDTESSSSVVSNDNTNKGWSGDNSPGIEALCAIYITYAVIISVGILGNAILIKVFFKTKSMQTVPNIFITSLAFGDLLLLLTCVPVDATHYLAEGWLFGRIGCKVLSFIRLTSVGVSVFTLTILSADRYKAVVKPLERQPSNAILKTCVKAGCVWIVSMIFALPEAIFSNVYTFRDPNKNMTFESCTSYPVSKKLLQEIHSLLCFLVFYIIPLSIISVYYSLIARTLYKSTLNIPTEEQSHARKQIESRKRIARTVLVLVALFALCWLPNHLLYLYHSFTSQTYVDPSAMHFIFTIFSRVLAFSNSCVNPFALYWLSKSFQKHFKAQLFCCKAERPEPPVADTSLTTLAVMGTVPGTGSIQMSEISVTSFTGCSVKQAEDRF

human lung-cancer cells = assay: cells; type: cell-based; settings: for EC50: Homo sapiens; for [3H]-Thymidine Incorporation (Exp/control): 24 h serum-free
human BRS-3-receptor [2] = target: T1, human BRS-3-receptor; assay: [3H]-inositol phosphates; type: cell-based; settings: for EC50: EC50, release of [3H]IP; for [3H]IP (Exp/control) / [3H]IP (DPM): MK-5046 10 nM
human BRS-3-receptor [3] = target: T1, human BRS-3-receptor; assay: Cytosolic Ca2+; type: cell-based; settings: MK-5046 10 nM
BRS-3/Balb cells = settings: 24 h serum-free, Balb-3T3 BRS-3-transfected

dose-response curve shape, p42/44 phosphorylation (human BRS-3-receptor [1]; BRS-3/H1299-transfected-cells): monophasic
EC50 (human BRS-3-receptor [1]; BRS-3/H1299-cells): 1.9 ± 0.16 nM
EC50 (human BRS-3-receptor [1]; NCI-H69): 0.12 ± 0.01 nM
EC50 (human BRS-3-receptor [1]; NCI-H82): 1.08 ± 0.16 nM
EC50 (human BRS-3-receptor [1]; NCI-H720): 1.14 ± 0.57 nM
EC50 (human BRS-3-receptor [1]; NCI-H727): 0.02 ± 0.01 nM
EC50 (human BRS-3-receptor [1]; NCI-N417): 0.02 ± 0.01 nM
P-p42/44 (Exp/control) (human BRS-3-receptor [1]; Balb-3T3 BRS-3 transfected): 1.85 ± 0.21 Exp/control
P-p42/44 (Exp/control) (human BRS-3-receptor [1]; NCI-H69 (SCLC)): 1.95 ± 0.18 Exp/control
P-p42/44 (Exp/control) (human BRS-3-receptor [1]; NCI-H82 (SCLC)): 1.50 ± 0.10 Exp/control
P-p42/44 (Exp/control) (human BRS-3-receptor [1]; NCI-H358 (NSCLC)): 2.33 ± 0.34 Exp/control
P-p42/44 (Exp/control) (human BRS-3-receptor [1]; NCI-H460 (NSCLC)): 1.07 ± 0.16 Exp/control
P-p42/44 (Exp/control) (human BRS-3-receptor [1]; NCI-H510 (SCLC)): 2.22 ± 0.13 Exp/control
P-p42/44 (Exp/control) (human BRS-3-receptor [1]; NCI-H520 (NSCLC)): 1.88 ± 0.24 Exp/control
P-p42/44 (Exp/control) (human BRS-3-receptor [1]; NCI-H1299 BRS-3 transfected): 1.54 ± 0.28 Exp/control
P-p42/44 (Exp/control) (human BRS-3-receptor [1]; NCI-N417 (SCLC)): 1.64 ± 0.25 Exp/control
decrease in p42/44-phosphorylation at supramaximal concentrations (human BRS-3-receptor [1]; NCI-H82-cells, p < 0.002): 50 ± 7%
decrease in p42/44-phosphorylation at supramaximal concentrations (human BRS-3-receptor [1]; NCI-H727-cells, p < 0.0001): 49 ± 9%
decrease in p42/44-phosphorylation at supramaximal concentrations (human BRS-3-receptor [1]; NCI-N417, p < 0.0001): 29 ± 6%
dose-response curve shape, p42/44 phosphorylation (human BRS-3-receptor [1]; all the cells (NCI-H727, NCI-H720, NCI-H69, NCI-H82, NCI-N417) except BRS-3/H1299): biphasic
Emax at 1 µM (human BRS-3-receptor [1]; read-out: maximal stimulation of p42/44-MAPK phosphorylation): 96 ± 7%
EC50 (human lung-cancer cells; NCI-H69, read-out: EC50, [3H]-Thymidine-uptake): 0.27 ± 0.06 nM
EC50 (human lung-cancer cells; NCI-H358, read-out: EC50, [3H]-Thymidine-uptake): 0.52 ± 0.07 nM
EC50 (human lung-cancer cells; NCI-H727, read-out: EC50, [3H]-Thymidine-uptake): 0.31 ± 0.06 nM
greatest [3H]IP-increase in IP-production (human BRS-3-receptor [2]; BRS-3/H1299-cells): 8 fold
EC50 (human BRS-3-receptor [2]; BRS-3/H1299 cells): 0.37 ± 0.04 nM
EC50 (human BRS-3-receptor [2]; NCI-H69 cells): 3.29 ± 0.54 nM
EC50 (human BRS-3-receptor [2]; NCI-H720 cells): 0.14 ± 0.05 nM
decrease in [3H]IP-release at supramaximal concentrations (human BRS-3-receptor [2]; H720 cells, p < 0.05): 28%
[3H]IP (Exp/control) (human BRS-3-receptor [2]; Balb-3T3 BRS-3 transfected): 7.50 ± 0.68 Exp/control
[3H]IP (DPM) (human BRS-3-receptor [2]; Balb-3T3 BRS-3 transfected, control 2487 ± 185): 18657 ± 1698 DPM
[3H]IP (Exp/control) (human BRS-3-receptor [2]; NCI-H69 (SCLC)): 3.38 ± 0.17 Exp/control
[3H]IP (DPM) (human BRS-3-receptor [2]; NCI-H69 (SCLC), control 177 ± 27): 597 ± 29 DPM
[3H]IP (Exp/control) (human BRS-3-receptor [2]; NCI-H82 (SCLC)): 2.09 ± 0.33 Exp/control
[3H]IP (Exp/control) (human BRS-3-receptor [2]; NCI-H358 (NSCLC)): 1.50 ± 0.15 Exp/control
[3H]IP (Exp/control) (human BRS-3-receptor [2]; NCI-H460 (NSCLC)): 1.63 ± 0.18 Exp/control
[3H]IP (Exp/control) (human BRS-3-receptor [2]; NCI-H510 (SCLC)): 1.12 ± 0.05 Exp/control
[3H]IP (Exp/control) (human BRS-3-receptor [2]; NCI-H520 (NSCLC)): 1.84 ± 0.36 Exp/control
[3H]IP (Exp/control) (human BRS-3-receptor [2]; NCI-H1299 BRS-3 transfected): 7.63 ± 0.77 Exp/control
[3H]IP (Exp/control) (human BRS-3-receptor [2]; NCI-N417 (SCLC)): 4.31 ± 1.03 Exp/control
[3H]IP (DPM) (human BRS-3-receptor [2]; NCI-N417 (SCLC), control 660 ± 87): 2850 ± 571 DPM
maximal stimulated [3H]IP value (human BRS-3-receptor [2]; NCI-H69 cells, 100 nM MK-5046, control 177 ± 27 dpm): 834 ± 66 dpm
maximal stimulated [3H]IP value (human BRS-3-receptor [2]; NCI-H720 cells, 10 nM MK-5046, control 268 ± 23 dpm): 375 ± 31 dpm
maximal stimulated [3H]IP value (human BRS-3-receptor [2]; hBRS-3-NCI-H1299 cells, 100 nM MK-5046, control 1169 ± 88 dpm): 10,144 ± 1310 dpm
Ca2+ release (% over basal) (human BRS-3-receptor [3]; Balb-3T3 BRS-3 transfected): 7.43 ± 1.22 % over basal
Ca2+ release (% over basal) (human BRS-3-receptor [3]; NCI-H69 (SCLC)): 3.09 ± 0.67 % over basal
Ca2+ release (% over basal) (human BRS-3-receptor [3]; NCI-H82 (SCLC)): 9.00 ± 1.11 % over basal
Ca2+ release (% over basal) (human BRS-3-receptor [3]; NCI-H358 (NSCLC)): 1.65 ± 0.43 % over basal
Ca2+ release (% over basal) (human BRS-3-receptor [3]; NCI-H460 (NSCLC)): 5.77 ± 1.41 % over basal
Ca2+ release (% over basal) (human BRS-3-receptor [3]; NCI-H510 (SCLC)): 2.94 ± 0.52 % over basal
Ca2+ release (% over basal) (human BRS-3-receptor [3]; NCI-H520 (NSCLC)): 2.60 ± 0.40 % over basal
Ca2+ release (% over basal) (human BRS-3-receptor [3]; NCI-H1299 BRS-3 transfected): 8.04 ± 0.55 % over basal
Ca2+ release (% over basal) (human BRS-3-receptor [3]; NCI-N417 (SCLC)): 4.40 ± 0.62 % over basal
Compound: O[C@@](Cc1nc(CC2(C(F)(F)F)CC2)c[nH]1)(c1ccc(-n2cccn2)cc1)C(F)(F)F [MK-5046, (2S)-1,1,1-trifluoro-2-[4-(1H-pyrazol-1-yl)phenyl]-3-(4-[[1-(trifluoromethyl)cyclopropyl]methyl]-1H-imidazol-2-yl)propan-2-ol]
P-p42/44 (Exp/control) (human BRS-3-receptor [1]; NCI-H720 (carcinoid)): 2.53 ± 0.39 Exp/control
P-p42/44 (Exp/control) (human BRS-3-receptor [1]; NCI-H727 (carcinoid)): 2.41 ± 0.34 Exp/control
[3H]-Thymidine Incorporation (Exp/control) (human lung-cancer cells; MK-5046 10 nM, NCI-H69): 1.36 ± 0.09 Exp/control
[3H]-Thymidine Incorporation (Exp/control) (human lung-cancer cells; MK-5046 10 nM, NCI-H82): 1.08 ± 0.08 Exp/control
[3H]-Thymidine Incorporation (Exp/control) (human lung-cancer cells; MK-5046 10 nM, NCI-H358): 1.20 ± 0.05 Exp/control
[3H]-Thymidine Incorporation (Exp/control) (human lung-cancer cells; MK-5046 10 nM, NCI-H460): 1.29 ± 0.07 Exp/control
[3H]-Thymidine Incorporation (Exp/control) (human lung-cancer cells; MK-5046 10 nM, NCI-H510): 1.39 ± 0.04 Exp/control
[3H]-Thymidine Incorporation (Exp/control) (human lung-cancer cells; MK-5046 10 nM, NCI-H520): 1.27 ± 0.10 Exp/control
[3H]-Thymidine Incorporation (Exp/control) (human lung-cancer cells; MK-5046 10 nM, NCI-H720): 1.15 ± 0.04 Exp/control
[3H]-Thymidine Incorporation (Exp/control) (human lung-cancer cells; MK-5046 10 nM, NCI-H727): 1.41 ± 0.18 Exp/control
[3H]-Thymidine Incorporation (Exp/control) (human lung-cancer cells; MK-5046 10 nM, NCI-H1299 BRS-3-transfected): 1.41 ± 0.06 Exp/control
[3H]-Thymidine Incorporation (Exp/control) (human lung-cancer cells; MK-5046 10 nM, NCI-N417): 1.29 ± 0.08 Exp/control
[3H]-Thymidine Incorporation (Exp/control) (human lung-cancer cells; MK-5046 1 μM, NCI-H69): 0.76 ± 0.07 Exp/control
[3H]-Thymidine Incorporation (Exp/control) (human lung-cancer cells; MK-5046 1 μM, NCI-H82): 1.17 ± 0.05 Exp/control
[3H]-Thymidine Incorporation (Exp/control) (human lung-cancer cells; MK-5046 1 μM, NCI-H358): 1.15 ± 0.06 Exp/control
[3H]-Thymidine Incorporation (Exp/control) (human lung-cancer cells; MK-5046 1 μM, NCI-H460): 1.07 ± 0.07 Exp/control
[3H]-Thymidine Incorporation (Exp/control) (human lung-cancer cells; MK-5046 1 μM, NCI-H510): 1.36 ± 0.10 Exp/control
[3H]-Thymidine Incorporation (Exp/control) (human lung-cancer cells; MK-5046 1 μM, NCI-H520): 1.07 ± 0.14 Exp/control
[3H]-Thymidine Incorporation (Exp/control) (human lung-cancer cells; MK-5046 1 μM, NCI-H720): 1.17 ± 0.03 Exp/control
[3H]-Thymidine Incorporation (Exp/control) (human lung-cancer cells; MK-5046 1 μM, NCI-H727): 1.47 ± 0.16 Exp/control
[3H]-Thymidine Incorporation (Exp/control) (human lung-cancer cells; MK-5046 1 μM, NCI-H1299 BRS-3-transfected): 1.27 ± 0.11 Exp/control
[3H]-Thymidine Incorporation (Exp/control) (human lung-cancer cells; MK-5046 1 μM, NCI-N417): 1.26 ± 0.07 Exp/control
decrease in [3H]-Thymidine-uptake at supramaximal concentrations (human lung-cancer cells; NCI-H69-cells): 87%
decrease in [3H]-Thymidine-uptake at supramaximal concentrations (human lung-cancer cells; NCI-H358-cells): 23%
[3H]IP (Exp/control) (human BRS-3-receptor [2]; NCI-H720 (carcinoid)): 1.64 ± 0.22 Exp/control
[3H]IP (Exp/control) (human BRS-3-receptor [2]; NCI-H727 (carcinoid)): 2.59 ± 0.22 Exp/control
[3H]IP (DPM) (human BRS-3-receptor [2]; NCI-H727 (carcinoid), control 143 ± 21): 371 ± 32 DPM
Ca2+ release (% over basal) (human BRS-3-receptor [3]; NCI-H720 (carcinoid)): 2.40 ± 0.28 % over basal
Ca2+ release (% over basal) (human BRS-3-receptor [3]; NCI-H727 (carcinoid)): 6.26 ± 1.43 % over basal
[3H]-Thymidine Incorporation (Exp/control) (BRS-3/Balb cells; MK-5046 10 nM): 1.00 ± 0.04 Exp/control
[3H]-Thymidine Incorporation (Exp/control) (BRS-3/Balb cells; MK-5046 1 μM): 1.24 ± 0.07 Exp/control

Source: paper PMC6159918 (Peptides, 2018)
